Assay results as given in PubChem BioAssay (NCI).
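Growth conditions: 96-well plates. Treatment: test compound, 48 hours, 5 concentrations. Analysis: linear interpolation between bracketing concentrations; unreached endpoints set to highest concentration. Abbreviation: GI50, concentration required for 50% inhibition of growth. TGI: total growth inhibition.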

Key:
Test in all cases: growth of human tumour cells (NCI), 48 h
U251 CNS = system: U251 CNS
MALME-3M melanoma = system: MALME-3M melanoma
NCI-H522 lung = system: NCI-H522 lung
KM12 colon = system: KM12 colon
CAKI-1 renal = system: CAKI-1 renal
HOP-92 NSCLC = system: HOP-92 NSCLC
SW-620 colon = system: SW-620 colon
MDA-MB-231 breast = system: MDA-MB-231 breast
BT-549 breast = system: BT-549 breast
HT29 colon = system: HT29 colon
HCC-2998 colon = system: HCC-2998 colon
SK-OV-3 ovarian = system: SK-OV-3 ovarian
SK-MEL-2 melanoma = system: SK-MEL-2 melanoma
A498 renal = system: A498 renal
SF-268 CNS = system: SF-268 CNS
HL-60(TB) leukemia = system: HL-60(TB) leukemia
NCI-H226 lung = system: NCI-H226 lung
SNB-75 CNS = system: SNB-75 CNS
TK-10 renal = system: TK-10 renal
RXF 393 renal = system: RXF 393 renal
DU-145 prostate = system: DU-145 prostate
SK-MEL-5 melanoma = system: SK-MEL-5 melanoma
786-0 renal = system: 786-0 renal
UACC-257 melanoma = system: UACC-257 melanoma
ACHN renal = system: ACHN renal
SK-MEL-28 melanoma = system: SK-MEL-28 melanoma
HOP-62 NSCLC = system: HOP-62 NSCLC
SR leukemia = system: SR leukemia
LOX IMVI melanoma = system: LOX IMVI melanoma
PC-3 prostate = system: PC-3 prostate
OVCAR-5 ovarian = system: OVCAR-5 ovarian
CCRF-CEM leukemia = system: CCRF-CEM leukemia
HCT-15 colon = system: HCT-15 colon
MOLT-4 leukemia = system: MOLT-4 leukemia
NCI-H460 lung = system: NCI-H460 lung
OVCAR-8 ovarian = system: OVCAR-8 ovarian
IGROV1 ovarian = system: IGROV1 ovarian
COLO 205 colon = system: COLO 205 colon
M14 melanoma = system: M14 melanoma
MDA-MB-435 = system: MDA-MB-435
EKVX NSCLC = system: EKVX NSCLC
HS 578T breast = system: HS 578T breast
SF-295 CNS = system: SF-295 CNS
HCT-116 colon = system: HCT-116 colon
SN12C renal = system: SN12C renal
SF-539 CNS = system: SF-539 CNS
UO-31 renal = system: UO-31 renal
SNB-19 CNS = system: SNB-19 CNS
UACC-62 melanoma = system: UACC-62 melanoma
A549 NSCLC = system: A549 NSCLC
K-562 leukemia = system: K-562 leukemia
MCF7 breast = system: MCF7 breast
NCI/ADR-RES ovarian = system: NCI/ADR-RES ovarian
OVCAR-4 ovarian = system: OVCAR-4 ovarian
RPMI-8226 leukemia = system: RPMI-8226 leukemia
OVCAR-3 ovarian = system: OVCAR-3 ovarian
T-47D breast = system: T-47D breast

Q: With `COc1cc(OC)c(S(N)(=O)=O)cc1C(=O)/C=C/c1ccccc1` as the compound, how does the GI50 (U251 CNS) read?
A: 2.92 µM

Q: What about the TGI (U251 CNS) of the same compound?
A: 15.2 µM

Q: What about the GI50 (MALME-3M melanoma) of the same compound?
A: 13.9 µM

Q: What about the TGI (MALME-3M melanoma) of the same compound?
A: 29.3 µM

Q: What about the GI50 (NCI-H522 lung) of the same compound?
A: 6.56 µM

Q: And the TGI (NCI-H522 lung)?
A: 20.8 µM

Q: What about the GI50 (KM12 colon) of the same compound?
A: 3.31 µM

Q: And the TGI (KM12 colon)?
A: 18.5 µM

Q: And the GI50 (CAKI-1 renal)?
A: 1.86 µM

Q: And the TGI (CAKI-1 renal)?
A: 15.6 µM

Q: And the GI50 (HOP-92 NSCLC)?
A: 2.06 µM

Q: And the TGI (HOP-92 NSCLC)?
A: 12 µM

Q: What about the GI50 (SW-620 colon) of the same compound?
A: 2.68 µM

Q: What about the TGI (SW-620 colon) of the same compound?
A: 13.4 µM

Q: What about the GI50 (MDA-MB-231 breast) of the same compound?
A: 11.9 µM

Q: What about the TGI (MDA-MB-231 breast) of the same compound?
A: 27 µM

Q: What about the GI50 (BT-549 breast) of the same compound?
A: 2.65 µM

Q: What about the TGI (BT-549 breast) of the same compound?
A: 14.1 µM

Q: What about the GI50 (HT29 colon) of the same compound?
A: 4.02 µM

Q: What about the TGI (HT29 colon) of the same compound?
A: 13.8 µM

Q: And the GI50 (HCC-2998 colon)?
A: 12.5 µM

Q: And the TGI (HCC-2998 colon)?
A: 26.2 µM

Q: What about the GI50 (SK-OV-3 ovarian) of the same compound?
A: 14.4 µM

Q: And the TGI (SK-OV-3 ovarian)?
A: 27.6 µM

Q: What about the GI50 (SK-MEL-2 melanoma) of the same compound?
A: 12.6 µM

Q: What about the TGI (SK-MEL-2 melanoma) of the same compound?
A: 26.5 µM

Q: And the GI50 (A498 renal)?
A: 16.9 µM

Q: And the TGI (A498 renal)?
A: 30.7 µM

Q: And the GI50 (SF-268 CNS)?
A: 5.88 µM

Q: What about the TGI (SF-268 CNS) of the same compound?
A: 22.9 µM

Q: What about the GI50 (HL-60(TB) leukemia) of the same compound?
A: 2.27 µM

Q: What about the TGI (HL-60(TB) leukemia) of the same compound?
A: 23.2 µM

Q: And the GI50 (NCI-H226 lung)?
A: 10 µM

Q: What about the TGI (NCI-H226 lung) of the same compound?
A: 26.4 µM

Q: What about the GI50 (SNB-75 CNS) of the same compound?
A: 2.08 µM

Q: What about the TGI (SNB-75 CNS) of the same compound?
A: 7.32 µM

Q: And the GI50 (TK-10 renal)?
A: 12.9 µM

Q: And the TGI (TK-10 renal)?
A: 25.8 µM

Q: And the GI50 (RXF 393 renal)?
A: 1.9 µM

Q: And the TGI (RXF 393 renal)?
A: 7.74 µM

Q: What about the GI50 (DU-145 prostate) of the same compound?
A: 1.88 µM

Q: What about the TGI (DU-145 prostate) of the same compound?
A: 13.9 µM

Q: And the GI50 (SK-MEL-5 melanoma)?
A: 17.6 µM

Q: What about the TGI (SK-MEL-5 melanoma) of the same compound?
A: 32.4 µM

Q: And the GI50 (786-0 renal)?
A: 4.82 µM

Q: What about the TGI (786-0 renal) of the same compound?
A: 20.8 µM

Q: What about the GI50 (UACC-257 melanoma) of the same compound?
A: 9.96 µM

Q: What about the TGI (UACC-257 melanoma) of the same compound?
A: 21.8 µM

Q: And the GI50 (ACHN renal)?
A: 7 µM

Q: What about the TGI (ACHN renal) of the same compound?
A: 20.1 µM

Q: What about the GI50 (SK-MEL-28 melanoma) of the same compound?
A: 12.5 µM

Q: What about the TGI (SK-MEL-28 melanoma) of the same compound?
A: 25.3 µM

Q: What about the GI50 (HOP-62 NSCLC) of the same compound?
A: 9.51 µM

Q: What about the TGI (HOP-62 NSCLC) of the same compound?
A: 22.6 µM

Q: And the GI50 (SR leukemia)?
A: 1.73 µM

Q: And the TGI (SR leukemia)?
A: 24.8 µM

Q: And the GI50 (LOX IMVI melanoma)?
A: 0.335 µM

Q: And the TGI (LOX IMVI melanoma)?
A: 12.4 µM

Q: And the GI50 (PC-3 prostate)?
A: 5.95 µM

Q: What about the TGI (PC-3 prostate) of the same compound?
A: 20.6 µM

Q: And the GI50 (OVCAR-5 ovarian)?
A: 13.2 µM

Q: And the TGI (OVCAR-5 ovarian)?
A: 26.7 µM

Q: And the GI50 (CCRF-CEM leukemia)?
A: 3.93 µM

Q: And the TGI (CCRF-CEM leukemia)?
A: 67.2 µM

Q: And the GI50 (HCT-15 colon)?
A: 3.55 µM

Q: What about the TGI (HCT-15 colon) of the same compound?
A: 20.1 µM

Q: And the GI50 (MOLT-4 leukemia)?
A: 10.1 µM

Q: What about the TGI (MOLT-4 leukemia) of the same compound?
A: 43.1 µM

Q: What about the GI50 (NCI-H460 lung) of the same compound?
A: 1.95 µM

Q: And the TGI (NCI-H460 lung)?
A: 12.5 µM

Q: And the GI50 (OVCAR-8 ovarian)?
A: 11.3 µM

Q: What about the TGI (OVCAR-8 ovarian) of the same compound?
A: 24.1 µM

Q: And the GI50 (IGROV1 ovarian)?
A: 9.74 µM

Q: And the TGI (IGROV1 ovarian)?
A: 27.6 µM

Q: And the GI50 (COLO 205 colon)?
A: 10.6 µM

Q: And the TGI (COLO 205 colon)?
A: 24 µM

Q: What about the GI50 (M14 melanoma) of the same compound?
A: 7.51 µM

Q: What about the TGI (M14 melanoma) of the same compound?
A: 23.8 µM

Q: And the GI50 (MDA-MB-435)?
A: 2.12 µM

Q: And the TGI (MDA-MB-435)?
A: 12 µM

Q: What about the GI50 (EKVX NSCLC) of the same compound?
A: 14.2 µM

Q: What about the TGI (EKVX NSCLC) of the same compound?
A: 27.6 µM

Q: What about the GI50 (HS 578T breast) of the same compound?
A: 5.89 µM

Q: What about the TGI (HS 578T breast) of the same compound?
A: 43.3 µM

Q: And the GI50 (SF-295 CNS)?
A: 15.7 µM

Q: And the TGI (SF-295 CNS)?
A: 30.3 µM

Q: What about the GI50 (HCT-116 colon) of the same compound?
A: 1.49 µM

Q: And the TGI (HCT-116 colon)?
A: 14.8 µM

Q: What about the GI50 (SN12C renal) of the same compound?
A: 3.49 µM

Q: And the TGI (SN12C renal)?
A: 16.9 µM

Q: And the GI50 (SF-539 CNS)?
A: 2.44 µM

Q: What about the TGI (SF-539 CNS) of the same compound?
A: 8.98 µM

Q: And the GI50 (UO-31 renal)?
A: 4.76 µM

Q: And the TGI (UO-31 renal)?
A: 19 µM

Q: And the GI50 (SNB-19 CNS)?
A: 14 µM

Q: What about the TGI (SNB-19 CNS) of the same compound?
A: 28.5 µM

Q: What about the GI50 (UACC-62 melanoma) of the same compound?
A: 12.2 µM

Q: And the TGI (UACC-62 melanoma)?
A: 26.9 µM

Q: What about the GI50 (A549 NSCLC) of the same compound?
A: 10.5 µM

Q: What about the TGI (A549 NSCLC) of the same compound?
A: 22.7 µM

Q: And the GI50 (K-562 leukemia)?
A: 1.5 µM

Q: And the TGI (K-562 leukemia)?
A: 22.3 µM

Q: And the GI50 (MCF7 breast)?
A: 0.97 µM

Q: What about the TGI (MCF7 breast) of the same compound?
A: 14.2 µM

Q: What about the GI50 (NCI/ADR-RES ovarian) of the same compound?
A: 15.5 µM

Q: What about the TGI (NCI/ADR-RES ovarian) of the same compound?
A: 57.6 µM

Q: And the GI50 (OVCAR-4 ovarian)?
A: 11.8 µM

Q: What about the TGI (OVCAR-4 ovarian) of the same compound?
A: 25.7 µM

Q: And the GI50 (RPMI-8226 leukemia)?
A: 2.98 µM

Q: And the TGI (RPMI-8226 leukemia)?
A: 21.4 µM

Q: What about the GI50 (OVCAR-3 ovarian) of the same compound?
A: 2.71 µM

Q: What about the TGI (OVCAR-3 ovarian) of the same compound?
A: 13.1 µM

Q: And the GI50 (T-47D breast)?
A: 2.09 µM

Q: What about the TGI (T-47D breast) of the same compound?
A: 12.1 µM
